Data published in the supplement of paper PMC11208160.

test: recombinant UMI read abundance after kanamycin selection (control-corrected) (log10(CPM+1)); higher = more efficient recombination; extreme values may be limits of the assay; sequences stand for … in AGTGCAGAGAAAATCGGCCAGTTTTCTCTGCCTGCAGTCCGCATGCCGTGGGACCCCTTGGGTTCTAACCTGTTGCCTAGATTTATGCAGCGGACTGCCTTTCTCCCAAAGTGATAAACCGG…AGGTTGGTTTCACT; site = the 11-nt donor
Summary of the method: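 Pooled Escherichia coli screen of donor and donor-binding-loop pairs for the IS621 bridge recombinase. Each pair sits with a 12-nt UMI on a plasmid carrying a promoterless kanamycin gene. The library was co-electroporated with a target plasmid encoding a fixed target and T7-inducible recombinase, then plated with IPTG (0.07 mM) plus kanamycin, or unselected, each in two replicates. Recombinant UMIs were PCR-amplified across the donor–target junction and sequenced. Counts became CPM, averaged over replicates, scaled by control-derived factors and reported as log10(CPM+1).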
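Further: IS621 bridge recombinase in Escherichia coli cells against a fixed T5 target plasmid.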

Sequence	recombinant UMI read abundance (log10)
TATCTATCATGGACCGGTTTTCCCGGTAATCCGTATTTGTC (site TATCTATCTGA)	1.59
TATCTCGCATGGACCGGTTTTCCCGGTAATCCGTATTTGCA (site TATCTCGCTTG)	0.374
TATCTGGCATGGACCGGTTTTCCCGGTAATCCGTATTTGTG (site TATATGGCTCA)	0.0189
TATCTGGCATGGACCGGTTTTCCCGGTAATCCGTATTTGTG (site TATCTGGCTCA)	0.0196
TATCTGGCATGGACCGGTTTTCCCGGTAATCCGTATTTGTG (site TATGTGGCTCA)	0.00259
TATCTGGCATGGACCGGTTTTCCCGGTAATCCGTATTTGTG (site TATTTGGCTCA)	0.00973
TATGCGGCATGGACCGGTTTTCCCGGTAATCCGTATTTGAT (site TATGCGGCTAT)	0.581
TATGCTACATGGACCGGTTTTCCCGGTAATCCGTATTTGGC (site TATGCTACTGC)	0.253
TATGGGCCATGGACCGGTTTTCCCGGTAATCCGTATTTGCT (site TATGGGCCTAG)	0
TATGGTACATGGACCGGTTTTCCCGGTAATCCGTATTTGGC (site TATGGTACTGC)	1.67
TATGTACCATGGACCGGTTTTCCCGGTAATCCGTATTTGGT (site TATGTACCTAC)	0.011
TATGTCTCATGGACCGGTTTTCCCGGTAATCCGTATTTGCC (site TATGTCTCTGG)	2.6
TATTAGGCATGGACCGGTTTTCCCGGTAATCCGTATTTGTG (site TATTAGGCTCA)	0.459
TATTAGGCATGGACCGGTTTTCCCGGTAATCCGTATTTGTG (site TATTCGGCTCA)	0.00717
TATTAGGCATGGACCGGTTTTCCCGGTAATCCGTATTTGTG (site TATTGGGCTCA)	0
TATTAGGCATGGACCGGTTTTCCCGGTAATCCGTATTTGTG (site TATTTGGCTCA)	0.0156
TATTATCCATGGACCGGTTTTCCCGGTAATCCGTATTTGCT (site AATTATCCTAG)	0.494
TATTATCCATGGACCGGTTTTCCCGGTAATCCGTATTTGCT (site CATTATCCTAG)	0
TATTATCCATGGACCGGTTTTCCCGGTAATCCGTATTTGCT (site GATTATCCTAG)	0
TATTATCCATGGACCGGTTTTCCCGGTAATCCGTATTTGCT (site TATTATCCTAG)	0.622
TATTATGCATGGACCGGTTTTCCCGGTAATCCGTATTTGGA (site AATTATGCTTC)	0.364
TATTATGCATGGACCGGTTTTCCCGGTAATCCGTATTTGGA (site CATTATGCTTC)	0.525
TATTATGCATGGACCGGTTTTCCCGGTAATCCGTATTTGGA (site GATTATGCTTC)	0.00418
TATTATGCATGGACCGGTTTTCCCGGTAATCCGTATTTGGA (site TATTATGCTTC)	0.177
TATTCGCCATGGACCGGTTTTCCCGGTAATCCGTATTTGGG (site TATTCGCCTCC)	0.0547

Sequence	recombinant UMI read abundance (log10)
TATTGACCATGGACCGGTTTTCCCGGTAATCCGTATTTGCG (site TATTGACCTCG)	0.00685
TATTGGACATGGACCGGTTTTCCCGGTAATCCGTATTTGAC (site AATTGGACTGT)	0
TATTGGACATGGACCGGTTTTCCCGGTAATCCGTATTTGAC (site CATTGGACTGT)	0.701
TATTGGACATGGACCGGTTTTCCCGGTAATCCGTATTTGAC (site GATTGGACTGT)	0.0156
TATTGGACATGGACCGGTTTTCCCGGTAATCCGTATTTGAC (site TATTGGACTGT)	1.68
TATTTCCCATGGACCGGTTTTCCCGGTAATCCGTATTTGTG (site TATTTCCCTCA)	0.213
TATTTCGCATGGACCGGTTTTCCCGGTAATCCGTATTTGTG (site TATTTAGCTCA)	0.00938
TATTTCGCATGGACCGGTTTTCCCGGTAATCCGTATTTGTG (site TATTTCGCTCA)	0.00881
TATTTCGCATGGACCGGTTTTCCCGGTAATCCGTATTTGTG (site TATTTGGCTCA)	0
TATTTCGCATGGACCGGTTTTCCCGGTAATCCGTATTTGTG (site TATTTTGCTCA)	0.00403
TATTTGCCATGGACCGGTTTTCCCGGTAATCCGTATTTGTG (site TATTTGACTCA)	0.0205
TATTTGCCATGGACCGGTTTTCCCGGTAATCCGTATTTGTG (site TATTTGCCTCA)	0.0197
TATTTGCCATGGACCGGTTTTCCCGGTAATCCGTATTTGTG (site TATTTGGCTCA)	0.00691
TATTTGCCATGGACCGGTTTTCCCGGTAATCCGTATTTGTG (site TATTTGTCTCA)	0.0226
TATTTGGCATGGACCGGTTTTCCCGGTAATCCGTATTTGAG (site TATTTGGCTCA)	0.0138
TATTTGGCATGGACCGGTTTTCCCGGTAATCCGTATTTGAG (site TATTTGGCTCC)	0.00558
TATTTGGCATGGACCGGTTTTCCCGGTAATCCGTATTTGAG (site TATTTGGCTCG)	0.012
TATTTGGCATGGACCGGTTTTCCCGGTAATCCGTATTTGAG (site TATTTGGCTCT)	0.00868
TATTTGGCATGGACCGGTTTTCCCGGTAATCCGTATTTGTA (site TATTTGGCTAA)	0.00533
TATTTGGCATGGACCGGTTTTCCCGGTAATCCGTATTTGTA (site TATTTGGCTCA)	0.0148
TATTTGGCATGGACCGGTTTTCCCGGTAATCCGTATTTGTA (site TATTTGGCTGA)	0
TATTTGGCATGGACCGGTTTTCCCGGTAATCCGTATTTGTA (site TATTTGGCTTA)	0.00725
TATTTGGCATGGACCGGTTTTCCCGGTAATCCGTATTTGTT (site TATTTGGCTAA)	0.17
TATTTGGCATGGACCGGTTTTCCCGGTAATCCGTATTTGTT (site TATTTGGCTCA)	0.0085
TATTTGGCATGGACCGGTTTTCCCGGTAATCCGTATTTGTT (site TATTTGGCTGA)	0

Sequence	recombinant UMI read abundance (log10)
TATTTGGCATGGACCGGTTTTCCCGGTAATCCGTATTTGTT (site TATTTGGCTTA)	0
TCAAATGCATGGACCGGTTTTCCCGGTAATCCGTATTTGCC (site TCAAATGCTGG)	0
TCAAGGACATGGACCGGTTTTCCCGGTAATCCGTATTTGCA (site TCAAGGACTTG)	1.86
TCAAGGCCATGGACCGGTTTTCCCGGTAATCCGTATTTGGT (site TCAAGGCCTAC)	0.00348
TCACCGACATGGACCGGTTTTCCCGGTAATCCGTATTTGGA (site TCACCGACTTC)	0.0438
TCACGCCCATGGACCGGTTTTCCCGGTAATCCGTATTTGCT (site TCACGCCCTAG)	2.1
TCAGAGACATGGACCGGTTTTCCCGGTAATCCGTATTTGTG (site TCAGAGACTCA)	1.03
TCAGAGACATGGACCGGTTTTCCCGGTAATCCGTATTTGTG (site TCAGAGACTCC)	0.353
TCAGAGACATGGACCGGTTTTCCCGGTAATCCGTATTTGTG (site TCAGAGACTCG)	1.44
TCAGAGACATGGACCGGTTTTCCCGGTAATCCGTATTTGTG (site TCAGAGACTCT)	0.205
TCAGAGCCATGGACCGGTTTTCCCGGTAATCCGTATTTGCG (site TCAGAGACTCG)	0.00993
TCAGAGCCATGGACCGGTTTTCCCGGTAATCCGTATTTGCG (site TCAGAGCCTCG)	0.295
TCAGAGCCATGGACCGGTTTTCCCGGTAATCCGTATTTGCG (site TCAGAGGCTCG)	0.00861
TCAGAGCCATGGACCGGTTTTCCCGGTAATCCGTATTTGCG (site TCAGAGTCTCG)	2.36
TCAGAGTCATGGACCGGTTTTCCCGGTAATCCGTATTTGCG (site TCAGAGACTCG)	0.877
TCAGAGTCATGGACCGGTTTTCCCGGTAATCCGTATTTGCG (site TCAGAGCCTCG)	0.625
TCAGAGTCATGGACCGGTTTTCCCGGTAATCCGTATTTGCG (site TCAGAGGCTCG)	0.0319
TCAGAGTCATGGACCGGTTTTCCCGGTAATCCGTATTTGCG (site TCAGAGTCTCG)	3
TCAGTACCATGGACCGGTTTTCCCGGTAATCCGTATTTGTG (site TCAGTACCTCA)	0.023
TCAGTAGCATGGACCGGTTTTCCCGGTAATCCGTATTTGAT (site TCAGTAGCTAT)	2.12
TCAGTATCATGGACCGGTTTTCCCGGTAATCCGTATTTGCG (site ACAGTATCTTG)	0
TCAGTATCATGGACCGGTTTTCCCGGTAATCCGTATTTGCG (site TCAGTATCTCG)	1.85
TCAGTCCCATGGACCGGTTTTCCCGGTAATCCGTATTTGGT (site TCAGTCCCTAC)	0
TCATAGACATGGACCGGTTTTCCCGGTAATCCGTATTTGCG (site TCAAAGACTCG)	0.629
TCATAGACATGGACCGGTTTTCCCGGTAATCCGTATTTGCG (site TCACAGACTCG)	0.285
